Assay results published in patent US20100249125A1, “INHIBITION OF PROSTGLANDIN E2 RECEPTORS FOR THE TREATMENT OF ENDOMETRIOSIS” (THE TEXAS A&M UNIVERSITY SYSTEM, priority 2009, published 2010).
Entries after “also recorded” stand apart in the source; their conditions may differ. Where two headings read alike, the source gives them in different places.

Legend:
estrogen receptor = settings: treatment of endometriosis in women; cited from earlier work
[1] = tested on: human endometriotic epithelial cells 12Z; test: TUNEL apoptosis assay (flow cytometry, fluorescence microscopy); assay type: cell-based; settings: 12Z cells, 24 h; for Induced apoptosis (TUNEL, flow cytometry): AH6809 75 μM, AH23848 50 μM, alone or combined
Protocol: (§1) These well-characterized 12Z and 22B cells were cultured in DMEM/F12 without special steroid treatment containing 10% fetal bovine serum (FBS) and penicillin (100 U/ml), streptomycin (100 μg/ml) and amphotericin-B 2.5 μg/ml in a humidified 5% CO2 and 95% air at 37° C. as we described previously (11, 39). At 70-80% confluency the cells were cultured in DMEM/F12 with 2% dextran-charcoal-treated fetal bovine serum (DC-FBS) and treated with EP inhibitors (EP-I) for EP1 (SC19220-100 100 μM), EP2 (AH6809-75 μM) and/or EP4 (AH23848-50 μM) for 24 h.
(§2) EP2/EP4 small interfering RNA (siRNA): 12Z and 22B cells (3.0×10^5/well) were cultured in antibiotic-free DMEM/F12 with 10% FBS in six-well tissue culture plates. At 70-80% confluency, cells were used for EP2, EP4 or EP2/EP4 knock-down experiments using SMART-pool siRNA duplex delivered by DharmaFect-1 as described previously (11) and per manufacturer's instructions (Dharmacon Inc, Lafayette, Colo.). As an internal control, MOCK siRNA was used. According to the manufacturer's instructions, SMARTpool siRNA were consisted of at least four individual siRNA duplexes targeted against a specific gene and designed using a bioinformatics technology known as SMARTselection. […] The inventors used SMARTpool siRNA in order to use more than one siRNA duplex from different regions of the gene of interest to avoid non-specific indirect effects of single siRNA duplex to a single region of the target gene. Briefly, siRNA duplexes (100 nM/well) and DharmaFect-1 (3 μl/well) were diluted in 50 μl antibiotic and serum-free DMEM/F12 medium separately and mixed gently and incubated for 5 min at room temperature. Afterwards, EP2, EP4 or EP2/EP4 siRNA and DharmaFect-1 were mixed (total volume 100 μl) and incubated at room temperature for 20 min. Then, 100 μl siRNA: DharmaFect-1 complex was diluted with 2 ml antibiotic-free media with 10% FBS and added to the well. After 24 h, the medium was replaced with fresh DMEM/F12 with 10% FBS and incubated for 24 h. Fluorescence labeled siGLO RISC-free siRNA was transfected separately and transfection efficiency was estimated using a fluorescence microscope. Transfection efficiency more than 80% was considered as optimal conditions for further experiments. Efficiency of siRNA on silencing of EP2 and EP4 genes and proteins was assessed by RT-PCR and western blot, respectively 72 h post-transfection knock-down efficiency was 70-80% in both 12Z and 22B cells.
(§3) Terminal deoxynucleotide transferase dUTP nick end labeling (TUNEL) assay: Non-adherent and adherent cells were harvested, mixed together, and resuspended at the concentrations of 1×10^6 cells/ml. Nicks in the DNA were determined by terminal deoxynucleotidyl transferase (TdT) and 5-bromo-2′-deoxyuridine 5′-triphosphate (BrdUTP) labeling using APO-BrdU TUNEL Assay Kit. Detection of BrdU incorporation at DNA break sites was achieved through Alexa Fluor 488 dye-labeled anti-BrdU antibody. The staining procedures were performed as recommended by manufacturers. Numbers of apoptotic cells were analyzed by a flowcytometer (FACSCaliber, Becton Dickinson, San Jose, Calif.) using Cell Quest software. In addition, the presence of TUNEL labeled DNA fragments were determined by fluorescence microscopy. Digital images were captured using a Zeiss Axioplan 2 Research Microscope with an Axiocam HR digital camera.

[2] = tested on: human endometriotic stromal cells 22B; test: as above; assay type: cell-based; settings: 22B cells, 24 h; for Induced apoptosis (TUNEL, flow cytometry): AH6809 75 μM, AH23848 50 μM, alone or combined
Protocol: as §1, §2, §3

[3] = tested on: human endometriotic epithelial cells 12Z; test: Cell proliferation assay (Coulter counter); assay type: cell-based; settings: 12Z cells; 0-200 concentration series
Protocol: as §2
(§4) Cell Proliferation Assay: The 12Z and 22B cells (1×10^5/well) were cultured in DMEM/F12 with 10% FBS in six-well plates. At 70%-80% confluency the cells were cultured in DMEM/F12 with 2% dextran charcoal-treated FBS and treated with inhibitors for EP1 (SC19220; […]), EP2 (AH6809; […]), EP4 (AH23848; […]), or a combination of EP2 (AH6809; […]) and EP4 (AH23848; […]) for 36 hours. The concentrations for each inhibitor was determined by dose-response studies using […] and an optimal concentration was selected based on its effects on proliferation of human endometriotic cells (FIGS. 6A-6B). These inhibitors competitively bind with respective receptors and inhibit their functions (40-42). For the siRNA study, 24 hours after transfection of siRNA the medium was replaced and the cells were cultured in 2% dextran charcoal-treated FBS, which was considered as time 0 hour, and cell proliferation was estimated at 36 hours. The number of cells was counted using a Coulter counter (11) and considered as 100% present in control. Data were expressed as mean±SEM of three independent studies conducted in duplicate.

[4] = tested on: human endometriotic stromal cells 22B; test: Cell proliferation assay (Coulter counter); assay type: cell-based; settings: 22B cells; 0-200 concentration series
Protocol: as §2, §4

[5] = tested on: COX-2 along with p450 aromatase; settings: 3.75 mg, for 1 month; eutopic endometria; cited from earlier work
[6] = Cell viability assay (WST-1); assay type: cell-based, human; settings: human, AH6809 75 μM, AH23848 50 μM, alone or combined, vs control, read-out: Decrease of cell viability
Protocol: (§5) Cell Viability Assay: The 12Z and 22B cells (1.25×10^4 cells/well) were cultured in DMEM/F12 with 10% FBS in 96-well plates and treated as described previously. At the end of the experiments the cell viability (metabolic activity) was determined using a cell proliferation assay kit WST-1 according to the manufacturer's (Roche Applied Sciences) instructions. Metabolic activity recorded in control cells was considered as 100%. Data were expressed as mean±SEM of three independent experiments conducted in triplicate.

endometriotic lesions = settings: nude mice model; cited from earlier work
endometriotic implant = settings: hamster model; through caspase-3 dependent apoptosis; cited from earlier work
[7] = tested on: human immortalized endometriotic epithelial cells 12Z and stromal cells 22B; settings: associated with decreased PGE2 production; cited from earlier work
[8] = tested on: human endometriotic epithelial cells 12Z; test: Cell viability assay (WST-1); assay type: cell-based; settings: 12Z cells; AH6809 75 μM, AH23848 50 μM, alone or combined; vs control
Protocol: as §5

[9] = tested on: human endometriotic stromal cells 22B; test: Cell viability assay (WST-1); assay type: cell-based; settings: 22B cells; AH6809 75 μM, AH23848 50 μM, alone or combined; vs control
Protocol: as §5

[10] = 25 mg/d for 6 months, women with endometriosis; cited from earlier work

Question: With `C[C@]12CC[C@@H]3c4ccc(O)cc4C[C@@H](CCCCCCCCC[S+]([O-])CCCC(F)(F)C(F)(F)F)[C@H]3[C@@H]1CC[C@@H]2O` (some centres unmarked) [fulvestrant] as the molecule, how does the “Outcome of clinical trial” value (estrogen receptor) read?
Answer: discontinued due to unfavorable outcomes

Question: For `CC(=O)NNC(=O)N1Cc2ccccc2Oc2ccc(Cl)cc21` [SC19220], which “Induction of apoptosis (TUNEL)” value ([1]; SC19220 100 μM) is on record?
Answer: did not induce apoptosis

Question: And the “Induction of apoptosis (TUNEL)” value ([2]; SC19220 100 μM)?
Answer: did not induce apoptosis

Question: And the “Proliferation, dose response experiment” value [3]?
Answer: did not decrease proliferation

Question: What about the “Proliferation, dose response experiment” value [4] of the same molecule?
Answer: did not decrease proliferation

Question: For `CCNC(=O)[C@@H]1CCCN1C(=O)[C@H](CCCNC(=N)N)NC(=O)[C@H](CC(C)C)NC(=O)[C@@H](CC(C)C)NC(=O)[C@H](Cc1ccc(O)cc1)NC(=O)[C@H](CO)NC(=O)[C@H](Cc1c[nH]c2ccccc12)NC(=O)[C@H](Cc1c[nH]cn1)NC(=O)[C@@H]1CCC(=O)N1` [leuprolide acetate], which “Expression of COX-2 and p450 aromatase” value [5] is on record?
Answer: decreased expression of COX-2 along with p450 aromatase

Question: What does the source list for `CC(C)Oc1ccc2c(=O)c3cc(C(=O)O)ccc3oc2c1` [AH6809, 6-Isopropoxy-9-oxoxanthene-2-carboxylic acid]?
Answer: Induced apoptosis (TUNEL, flow cytometry) [1]: ~55%; Induced apoptosis (TUNEL, flow cytometry) [2]: ~45%; Proliferation, dose response experiment [3]: decreased (P<0.05) proliferation; Proliferation, dose response experiment [4]: decreased (P<0.05) proliferation; cytotoxicity at 75 μM ([6]; 12Z endometriotic epithelial cells, 12Z cells): ~55%; cytotoxicity at 75 μM ([6]; 22B endometriotic stromal cells, 22B cells): ~45%

Question: For `O=C(c1ccc(OCCN2CCCCC2)cc1)c1c(-c2ccc(O)cc2)sc2cc(O)ccc12` [raloxifene], which “Outcome of clinical trial” value (estrogen receptor) is on record?
Answer: discontinued due to unfavorable outcomes

Question: Which “Number and size of endometriotic lesions” value (endometriotic lesions) does the source give for `CS(=O)(=O)Nc1ccc([N+](=O)[O-])cc1Oc1ccccc1` [nimesulide] here?
Answer: failed to decrease number and size of endometriotic lesions

Question: Which “Regression of endometriotic implant” value (endometriotic implant) does the source give for `CS(=O)(=O)Nc1ccc([N+](=O)[O-])cc1OC1CCCCC1` [NS-398] here?
Answer: induced regression of endometriotic implant

Question: What about the “Survival, migration and invasion” value [7] of the same molecule?
Answer: prevents survival, migration, and invasion; also recorded: prevents survival, migration and invasion

Question: For `O=C(O)CC/C=C\CC[C@H]1[C@H](N2CCOCC2)C(=O)C[C@H]1OCc1ccc(-c2ccccc2)cc1` (relative stereo) [AH23848, (4Z)-7-[(rel-1S,2S,5R)-5-((1,1′-Biphenyl-4-yl)methoxy)-2-(4-morpholinyl)-3-oxocyclopentyl]-4-heptenoic acid], which “Induced apoptosis (TUNEL, flow cytometry)” value [1] is on record?
Answer: ~55%

Question: What about the “Induced apoptosis (TUNEL, flow cytometry)” value [2] of the same molecule?
Answer: ~45%

Question: What about the “Proliferation, dose response experiment” value [3] of the same molecule?
Answer: decreased (P<0.05) proliferation

Question: What about the “Proliferation, dose response experiment” value [4] of the same molecule?
Answer: decreased (P<0.05) proliferation

Question: What about the “Decrease of cell viability” value [8] of the same molecule?
Answer: ~55%

Question: What about the “Decrease of cell viability” value [9] of the same molecule?
Answer: ~45%

Question: For `CS(=O)(=O)c1ccc(C2=C(c3ccccc3)C(=O)OC2)cc1` [rofecoxib], which Pelvic pain symptoms [10] is on record?
Answer: effectively suppressed the pelvic pain symptoms
